Assay results from patent US20210246157A1, “CAMPTOTHECIN DERIVATIVES AND PREPARATION METHODS AND APPLICATIONS THEREOF” (priority 2018, published 2021).
In brackets after ≈: the same amount, converted by molar mass. Counter-ions that a name gives are not always drawn. Like-named read-outs stand apart in the source and are kept apart here.

Key:
[1] = Solubility test, equilibrium method, UV-visible spectrophotometry; assay type: physicochemical; conditions: for solubility: thermodynamic from solid
Experimental: The solubility test is carried out by equilibrium method. […] An appropriate amount of the compound is weighed and dissolved in 1 mL of methanol solution to prepare a control solution with a certain concentration (C0). The concentration of test solution is calculated according to the following formula: Cx=(Ax/A0)C0, wherein Cx is concentration of test solution, Ax is absorbance of test solution, C0 is concentration of control solution, and A0 is absorbance of control solution.

[2] = Multi-dose in vivo antitumor activity study, mouse weight (Example 20); parameters: species or system mice; conditions: CPT-11 group 10 mg/kg, caudal vein once every 2 days
Experimental: The drugs are administered through the caudal veins of mice once every 2 days for a total of 7 times.
At the end of the treatment cycle, the orbital venous blood of the mice is collected for later blood routine test, the mice are killed by cervical dislocation method, and tumors are removed immediately and photographed. From day 0, the mice in each group are weighed every three days, and the weights are recorded. The weight average value of each group is calculated, and mouse weight variation curve is drawn according to statistical data. At the end of the treatment cycle, tumors are removed from anesthetized mice immediately and weighted, and the tumor weight of each group is recorded. The tumor inhibition rate (%) is calculated according to the following formula: […]

SW-480 = assay: Cytotoxicity test (MTT, 72 h); conditions: Homo sapiens, SW480, 72 h, read-out: 50% Inhibiting Concentration value (IC50)
Experimental: (§1) Cells at logarithmic growth period are inoculated in a 96-well plate overnight, then drugs with a certain gradient concentrations are added, and incubation is carried out in a cell culture chamber (5% CO2, 37° C.) for 72 h.

HT-29 = assay: Cytotoxicity test (MTT, 72 h); conditions: Homo sapiens, HT-29, 72 h, read-out: 50% Inhibiting Concentration value (IC50)
Experimental: as §1

HCT-116 = assay: Cytotoxicity test (MTT, 72 h); conditions: Homo sapiens, HCT-116, 72 h, read-out: 50% Inhibiting Concentration value (IC50)
Experimental: (§2) In order to investigate the antitumor activities of the compounds, a variety of tumor cell lines for test are selected. Cells at logarithmic growth period are inoculated in a 96-well plate overnight, then drugs with a certain gradient concentrations are added, and incubation is carried out in a cell culture chamber (5% CO2, 37° C.) for 72 h.

A549 = assay: Cytotoxicity test (MTT, 72 h); conditions: Homo sapiens, A549, 72 h, read-out: 50% Inhibiting Concentration value (IC50)
Experimental: as §2

H1975 = assay: Cytotoxicity test (MTT, 72 h); conditions: Homo sapiens, NCI-H1975, 72 h, read-out: 50% Inhibiting Concentration value (IC50)
Experimental: as §2

HepG2 = assay: Cytotoxicity test (MTT, 72 h); conditions: Homo sapiens, HepG2, 72 h, read-out: 50% Inhibiting Concentration value (IC50)
Experimental: as §2

BGC-823 = assay: Cytotoxicity test (MTT, 72 h); conditions: Homo sapiens, BGC-823, 72 h, read-out: 50% Inhibiting Concentration value (IC50)
Experimental: as §2

ECA-109 = assay: Cytotoxicity test (MTT, 72 h); conditions: Homo sapiens, ECa-109, 72 h, read-out: 50% Inhibiting Concentration value (IC50)
Experimental: as §2

K562 = assay: Cytotoxicity test (MTT, 72 h); conditions: Homo sapiens, K562, 72 h, read-out: 50% Inhibiting Concentration value (IC50)
Experimental: as §2

PC3 = assay: Cytotoxicity test (MTT, 72 h); conditions: Homo sapiens, PC-3, 72 h, read-out: 50% Inhibiting Concentration value (IC50)
Experimental: as §2

143B = assay: Cytotoxicity test (MTT, 72 h); conditions: Homo sapiens, read-out: 50% Inhibiting Concentration value (IC50)
Experimental: as §2

MDA-MB-231 = assay: Cytotoxicity test (MTT, 72 h); conditions: Homo sapiens, MDA-MB-231, 72 h, read-out: 50% Inhibiting Concentration value (IC50)
Experimental: as §2

Hela = assay: Cytotoxicity test (MTT, 72 h); conditions: Homo sapiens, read-out: 50% Inhibiting Concentration value (IC50)
Experimental: as §2

TPC-1 = assay: Cytotoxicity test (MTT, 72 h); conditions: Homo sapiens, TPC1, 72 h, read-out: 50% Inhibiting Concentration value (IC50)
Experimental: as §1

SKOV-3 = assay: Cytotoxicity test (MTT, 72 h); conditions: Homo sapiens, SK-OV-3, 72 h, read-out: 50% Inhibiting Concentration value (IC50)
Experimental: as §1

PANC-1 = assay: Cytotoxicity test (MTT, 72 h); conditions: Homo sapiens, PANC-1, 72 h, read-out: 50% Inhibiting Concentration value (IC50)
Experimental: as §1

tumor = conditions: Santi et al., J Med Chem. 2014; cited from earlier work
[3] = common drug solvents and water; Santi et al.; cited from earlier work
[4] = aqueous buffer, PBS pH 7.4, read-out: Solubility in PBS (pH = 7.4)
[5] = water, read-out: Solubility in Water
[6] = aqueous with cosolvent or surfactant or cyclodextrin, 0.1% aqueous solution of Tween-80, read-out: Solubility in 0.1% Tween-80
[7] = saline or isotonic, normal saline, read-out: Solubility in Normal Saline (NS)

| Structure (SMILES) | solubility [1, 4] [µg/mL] | solubility [1, 5] [µg/mL] | IC50 (SW-480) [µM] | IC50 (HT-29) [µM] | IC50 (HCT-116) [µM] | IC50 (A549) [µM] | IC50 (H1975) [µM] | IC50 (HepG2) [µM] | IC50 (BGC-823) [µM] | IC50 (ECA-109) [µM] | IC50 (K562) [µM] | IC50 (PC3) [µM] | IC50 (143B) [µM] | IC50 (MDA-MB-231) [µM] | IC50 (Hela) [µM] | IC50 (TPC-1) [µM] | IC50 (SKOV-3) [µM] | IC50 (PANC-1) [µM] | solubility [1, 6] [µg/mL] | solubility [1, 7] [µg/mL] | further results |
| --- | --- | --- | --- | --- | --- | --- | --- | --- | --- | --- | --- | --- | --- | --- | --- | --- | --- | --- | --- | --- | --- |
| CCc1c2c(nc3ccc(OC(=O)N4CCC(N5CCCCC5)CC4)cc13)-c1cc3c(c(=O)n1C2)COC(=O)[C@]3(O)CC [CPT-11, Irinotecan hydrochloride, reference compound] | 843 | 6300 | 7.38 | 12.8 | 14.1 | 35 | 29.1 | 22.1 | 9.15 | 11.7 | 10.7 | 25.1 | 20.3 | 14.4 | 12 | 25 | 16.5 | 22 | – | – | solubility ([1]; 0.1% aqueous solution of Tween-80, aqueous with cosolvent or surfactant or cyclodextrin, read-out: Solubility in 0.1% Tween-80): 597 µg/mL; solubility ([1]; normal saline, saline or isotonic, read-out: Solubility in Normal Saline (NS)): 1220 µg/mL; Mouse Weight ([2]; day 0): 16.53 g; Mouse Weight ([2]; day 3): 15.87 g; Mouse Weight ([2]; day 6): 16.10 g; Mouse Weight ([2]; day 9): 16.96 g; Mouse Weight ([2]; day 12): 16.53 g; Mouse Weight ([2]; day 15): 16.86 g; Mouse Weight ([2]; day 18): 16.27 g; Mouse Weight ([2]; day 21): 17.28 g |
| CCc1c2c(nc3ccc(OC(=O)NCCCOCc4cn([C@H]5O[C@@H](CO)[C@H](O)[C@@H](O)[C@@H]5O)nn4)cc13)-c1cc3c(c(=O)n1C2)COC(=O)[C@]3(O)CC [Compound 80] | 792 (≈ 1080 µM) | 82.5 (≈ 112 µM) | 1.43 | 6.94 | 5.15 | 6.13 | 10.7 | 9.33 | 1.19 | 5.78 | 4.29 | 5.11 | 8.9 | 7.78 | 7.36 | 12.8 | 11.2 | 7.36 | 961 (≈ 1300 µM) | 642 (≈ 871 µM) | – |
| CCc1c2c(nc3ccc(OC(=O)NCCCOCc4cn(CCO[C@H]5O[C@@H](CO)[C@H](O)[C@@H](O)[C@@H]5O)nn4)cc13)-c1cc3c(c(=O)n1C2)COC(=O)[C@]3(O)CC [Compound 81] | 895 (≈ 1150 µM) | 985 (≈ 1260 µM) | 0.851 | 9.42 | 7.24 | 8.32 | 9.68 | 6.25 | 0.709 | 7.85 | 6.03 | 6.93 | 8.06 | 5.21 | 9.98 | 11.6 | 7.5 | 9.98 | 1210 (≈ 1550 µM) | 985 (≈ 1260 µM) | – |
| CCc1c2c(nc3ccc(OC(=O)NCCCCCOCc4cn([C@H]5O[C@@H](CO)[C@H](O)[C@@H](O)[C@@H]5O)nn4)cc13)-c1cc3c(c(=O)n1C2)COC(=O)[C@]3(O)CC [Compound 87] | 910 (≈ 1190 µM) | 1050 (≈ 1370 µM) | 1.15 | 7.36 | 1.52 | 6.35 | 5.12 | 7.35 | 0.96 | 6.14 | 1.27 | 5.29 | 4.27 | 6.12 | 7.62 | 6.15 | 8.82 | 7.62 | 1110 (≈ 1450 µM) | 894 (≈ 1170 µM) | – |
| CCc1c2c(nc3ccc(OC(=O)NCCCCCOCc4cn(CCO[C@H]5O[C@@H](CO)[C@H](O)[C@@H](O)[C@@H]5O)nn4)cc13)-c1cc3c(c(=O)n1C2)COC(=O)[C@]3(O)CC [Compound 88] | 895 (≈ 1110 µM) | 1130 (≈ 1390 µM) | 0.865 | 9.1 | 2.73 | 9.13 | 6.98 | 6.22 | 0.721 | 7.58 | 2.27 | 7.61 | 5.82 | 5.18 | 11 | 8.38 | 7.46 | 11 | 1350 (≈ 1670 µM) | 870 (≈ 1080 µM) | – |
| CCc1c2c(nc3ccc(O)cc13)-c1cc3c(c(=O)n1C2)COC(=O)[C@]3(O)CC [SN38, reference compound] | – | – | – | – | – | – | – | – | – | – | – | – | – | – | – | – | – | – | – | – | Solubility in 0.1% Tween-80 ([1]; 0.1% aqueous solution of Tween-80): 77.4 µg/mL (≈ 197 µM); Solubility in PBS (pH = 7.4) ([1]; PBS pH 7.4): 17.6 μg/mL; Solubility in Normal Saline (NS) ([1]; normal saline): 7.5 µg/mL (≈ 19.1 µM); solubility in water, normal saline, PBS (PH 7.4) and 0.1% aqueous solution of Tween-80 (in words) ([1]; summary of Table 1): very low solubility; Solubility in Water ([1]; water): 7.7 µg/mL (≈ 19.6 µM); in vitro antitumor activity relative to irinotecan (tumor): 100-1000 times; solubility (in words) [3]: almost insoluble in common drug solvents and water |
